Data from patent US9926306B2, “Inhibition of MCL-1 and/or BFL-1/A1” (Dana-Farber Cancer Institute, Inc., priority 2012, dated 2018).
Entries after “also recorded” stand apart in the source; their conditions may differ.

How the values were obtained:
BFL-1/A1ΔC = BFL-1/A1ΔC (Homo sapiens (Human), UniProt Q16548); test: Competitive fluorescence polarization binding assay, BFL-1/A1 (FITC-BID BH3); conditions: Table A
Description: FIG. 19A and FIG. 19B are graphs that show potent targeting of the anti-apoptotic protein BFL-1/A1 by MIM1. […] Thus, the complex between FITC-BID BH3 and BFL-1/A1ΔC was employed in a competitive FP assay to monitor the capacity of MIM1 to target BFL-1/A1ΔC.

MCL-1ΔNΔC = MCL-1ΔNΔC (Homo sapiens (Human), UniProt Q07820); test: Competitive fluorescence polarization binding assay, MCL-1; conditions: Table A
Procedure: Here, we deployed MCL-1 SAHBA as a high fidelity screening tool to determine if its potency and specificity-of-action could be harnessed for small molecule discovery. […] A compilation of 71,296 small molecules was screened for the capacity to displace FITC-MCL-1 SAHBA from recombinant MCL-1ΔNΔC (aa 172-327) (FIG. 4).
Fluorescence polarization assays (FPA) were performed as previously described^38,39. […] Fluorescence polarization was measured at equilibrium and IC50 values calculated by nonlinear regression analysis of competitive binding curves using Prism software (Graphpad).

[1] = test system: wild-type or Bax−/−Bak−/− MEFs; test: Caspase 3/7 activation (Caspase-Glo), MEFs; assay type: cell-based, mouse; conditions: 8 h
Procedure: (§1) p185^+Arf^−/− and MCL-1 or BCL-XL-rescued p185^+Arf^−/−Mcl^−/− cells were maintained in RPMI 1640 (ATCC) supplemented with 10% (v/v) FBS, 100 U/mL penicillin, 100 μg/mL streptomycin, 0.1 mM MEM non-essential amino acids and 50 μM β-mercaptoethanol. Mouse embryonic fibroblasts (MEFs) cells were maintained in DMEM high glucose (Invitrogen) supplemented with 10% (v/v) FBS, 100 U/mL penicillin, 100 μg/mL streptomycin, 2 mM L-glutamine, 50 mM HEPES, 0.1 mM MEM non-essential amino acids and 50 μM β-mercaptoethanol. […] Cell viability was assayed at 24 h by addition of CellTiter-Glo reagent according to the manufacturer's protocol (Promega), and luminescence was measured using a SpectraMax M5 microplate reader (Molecular Devices). Caspase 3/7 activation was assayed at 8 h by addition of Caspase-Glo 3/7 reagent according to manufacturer's protocol (Promega), and luminescence measured using a SpectraMax M5 microplate reader. Viability and caspase assays were performed in duplicate, repeated at least twice with independent cell cultures, and the data normalized to vehicle-treated control wells.

[2] = test system: MCL-1-rescued p185+Arf−/−Mcl-1−/− CML cells; test: Cell viability (CellTiter-Glo), MCL-1-dependent leukemia cells; assay type: cell-based, murine; conditions: Mus musculus; MCL-1-dependent cells, 24 h
Description: A challenges in developing and applying molecular antagonists for BCL-2 family anti-apoptotic proteins is the variable expression of multiple homologues. That is, a cancer cell will only be susceptible to a selective anti-apoptotic inhibitor if the cell is especially dependent on that particular survival protein. […] To test MIM1's activity and specificity in cancer cells, we employed murine p185^+Arf^−/−Mcl-1^−/− chronic myelogenous leukemia (CML) cells that are unable to survive unless reconstituted with MCL-1, reflecting a stringent system for assessing MCL-1 dependence.
p185^+Arf^−/− and MCL-1 or BCL-XL-rescued p185^+Arf^−/−Mcl^−/− cells were maintained in RPMI 1640 (ATCC) supplemented with 10% (v/v) FBS, 100 U/mL penicillin, 100 μg/mL streptomycin, 0.1 mM MEM non-essential amino acids and 50 μM β-mercaptoethanol. […] Cell viability was assayed at 24 h by addition of CellTiter-Glo reagent according to the manufacturer's protocol (Promega), and luminescence was measured using a SpectraMax M5 microplate reader (Molecular Devices). Caspase 3/7 activation was assayed at 8 h by addition of Caspase-Glo 3/7 reagent according to manufacturer's protocol (Promega), and luminescence measured using a SpectraMax M5 microplate reader. […]

[3] = test system: parental p185+Arf−/− CML cells; test: Cell viability and CalcuSyn synergy, parental leukemia cells; assay type: cell-based, murine; conditions: Mus musculus; parental cells expressing both MCL-1 and BCL-XL; read-out: IC50, cytotoxicity
Procedure: as §1

[4] = test system: wild-type or Bax−/−Bak−/− MEFs; test: Cell viability (CellTiter-Glo), MEFs; assay type: cell-based, mouse; conditions: non-malignant fibroblasts, 24 h
Procedure: as §1

BCL-XLΔC = BCL-XLΔC (Homo sapiens (Human), UniProt Q07817); test: Competitive fluorescence polarization binding assay, BCL-XL; conditions: tracer FITC-BID BH3; read-out: IC50, displacement of FITC-BID BH3 from BCL-XLΔC
BCL-XLΔC, sequence (Q07817 1-212): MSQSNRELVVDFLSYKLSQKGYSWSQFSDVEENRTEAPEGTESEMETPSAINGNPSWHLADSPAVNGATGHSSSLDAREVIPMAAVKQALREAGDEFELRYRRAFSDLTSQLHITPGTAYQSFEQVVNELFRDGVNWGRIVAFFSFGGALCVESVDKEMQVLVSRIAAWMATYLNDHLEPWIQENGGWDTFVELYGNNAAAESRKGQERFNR

BFL-1/A1ΔC, sequence (Q16548 1-153): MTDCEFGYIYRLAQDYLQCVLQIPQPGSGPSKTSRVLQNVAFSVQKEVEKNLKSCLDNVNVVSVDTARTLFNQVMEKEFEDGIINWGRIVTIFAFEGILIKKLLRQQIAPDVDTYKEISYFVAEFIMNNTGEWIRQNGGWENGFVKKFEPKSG
MCL-1ΔNΔC, sequence (Q07820 172-327, stated change not applied): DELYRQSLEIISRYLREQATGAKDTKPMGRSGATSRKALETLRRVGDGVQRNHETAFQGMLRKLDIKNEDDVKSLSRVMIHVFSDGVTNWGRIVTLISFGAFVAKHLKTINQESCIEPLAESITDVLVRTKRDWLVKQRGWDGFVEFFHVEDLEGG

Row | Structure (SMILES) | IC50 (BFL-1/A1ΔC) [nM] | IC50 (MCL-1ΔNΔC) [nM] | further results
1 | CC(C)(C)c1cs/c(=N\C2CCCCC2)n1/N=C/c1cc(O)c(O)cc1O [183-87] | 42 | 151 | –
2 | CCc1cs/c(=N\C2CCCCC2)n1/N=C/c1ccc(O)c(O)c1O [178-82] | 1200 | 2100 | –
3 | CC(C)(C)Cc1cs/c(=N\C2CCCCC2)n1/N=C/c1ccc(O)c(O)c1O [183-70] | 1500 | 1970 | –
4 | COc1cc(/C=N/n2c(C)cs/c2=N\C2CCCCC2)cc(OC)c1OC [183-85] | – | 7600 | –
5 | Oc1ccc(/C=N/n2c(-c3cccs3)cs/c2=N\C2CCCCC2)c(O)c1O [183-76] | 388 | 11000 | –
6 | Cc1cs/c(=N\c2ccccc2)n1/N=C/c1ccc(O)c(O)c1O [183-20] | 264 | – | –
7 | Oc1ccc(/C=N/n2c(C3CC3)cs/c2=N\c2ccccc2)cc1O [187-95] | 3000 | – | –
8 | Oc1ccc(/C=N/n2c(C3CC3)cs/c2=N\C2CCCC2)c(O)c1O [183-22] | 601 | 2400 | –
9 | Cc1s/c(=N\C2CCN(C(=O)OC(C)(C)C)CC2)n(/N=C/c2ccc(O)c(O)c2O)c1C1CC1 [187-50] | 735 | – | –
10 | CC(C)(C)c1cs/c(=N\C2CCCCC2)n1/N=C/c1cc(O)c(O)cc1F [187-10] | 9100 | – | –
11 | Cc1cs/c(=N\CC2CCCCC2)n1/N=C/c1ccc(O)c(O)c1O [187-5] | 1100 | 2700 | –
12 | Cc1cs/c(=N\C2CCCc3ccccc32)n1/N=C/c1cc(O)c(O)cc1O (stereo not drawn) [187-22] | 144 | 1410 | –
13 | Cc1s/c(=N\C2CCCCC2)n(/N=C/c2cc(O)c(O)cc2O)c1C1CC1 [187-44] | 117 | 587 | –
14 | Oc1ccc(/C=N/n2c(C3CC3)cs/c2=N\C2CCCCC2)c(O)c1O [178-83] | 785 | 910 | –
15 | Cc1s/c(=N\C2CCCCC2)n(/N=C/c2cc(O)c(O)cc2O)c1C [183-89] | 581 | 780 | –
16 | Cc1cs/c(=N\c2ccccc2)n1/N=C/c1ccc(O)c(O)c1 [187-82] | 8100 | 13300 | –
17 | COC(=O)Cc1cs/c(=N\C2CCCCC2)n1/N=C/c1ccc(O)c(O)c1O [178-97] | 1000 | 9500 | –
18 | Cc1cs/c(=N\C2CCCCC2)n1/N=C/c1cc(O)c(O)c(O)c1 [183-84] | 316 | 13000 | –
19 | CCc1s/c(=N\C2CCCCC2)n(/N=C/c2ccc(O)c(O)c2O)c1C(C)(C)C [187-37] | 2800 | – | –
20 | Oc1cc(O)c(/C=N/n2c(C3CC3)cs/c2=N\C2CCCCC2)cc1O [187-7] | 26 | 123 | –
21 | Cc1cs/c(=N\C2CC3CCC2C3)n1/N=C/c1cc(O)c(O)cc1O (stereo not drawn) [183-82] | 169 | 1000 | –
22 | Oc1ccc(/C=N/N2/C(=N/C3CCCCC3)SCC2(O)C(F)(F)F)c(O)c1O (stereo not drawn) [183-51] | 1200 | 2900 | –
23 | Oc1ccc(/C=N/n2c(C3CC3)cs/c2=N\c2ccccc2)c(O)c1O [183-21] | 719 | 4300 | –

Row | Structure (SMILES) | IC50 (BFL-1/A1ΔC) [nM] | IC50 (MCL-1ΔNΔC) [nM] | further results
24 | Oc1ccc(/C=N/n2c(C3CC3)cs/c2=N\c2ccccc2)c(O)c1O [190-20] | 365 | – | –
25 | CC(C)C(C)/N=c1\scc(C(C)(C)C)n1/N=C/c1ccc(O)c(O)c1O (stereo not drawn) [187-27] | 1500 | 4300 | –
26 | COc1cc(/C=N/n2c(C(C)(C)C)cs/c2=N\C2CCCCC2)c(O)cc1O [190-4] | 15000 | – | –
27 | CCOC(=O)c1s/c(=N\C2CCCCC2)n(/N=C/c2ccc(O)c(O)c2O)c1C [183-91] | 381 | 11800 | –
28 | CC(C)(C)c1cs/c(=N\C2CCCCC2)n1/N=C/c1ccc(O)c(O)c1 [183-65] | 2100 | 17700 | –
29 | Cc1cs/c(=N\C2CCCCC2)n1/N=C/c1cc(O)c(O)cc1F [187-8] | 8400 | – | –
30 | CCOc1ccccc1/N=c1\scc(C)n1/N=C/c1ccc(O)c(O)c1O [183-24] | 2500 | 16000 | –
31 | Cc1cs/c(=N\C2CCCCC2)n1/N=C/c1ccc(O)c(O)c1 [183-38] | 282 | 12000 | –
32 | Oc1ccc(/C=N/NC(=S)NC2CCCCC2)c(O)c1O [178-72] | 5100 | 16000 | –
33 | Cc1cs/c(=N\C2CCCC2)n1/N=C/c1ccc(O)c(O)c1O [183-19] | 631 | 3100 | –
34 | Cc1cs/c(=N\C(C)C(C)C)n1/N=C/c1ccc(O)c(O)c1O (stereo not drawn) [187-20] | 2100 | 1780 | –
35 | Cc1cs/c(=N\C2CCCCC2)n1/N=C/c1ccc(O)c(O)c1O [MIM1, 4-((E)-(((Z)-2-(cyclohexylimino)-4-methylthiazol-3(2H)-yl)imino)methyl)benzene-1,2,3-triol] | – | – | caspase 3/7 activation [1]: no observed caspase 3/7 activation; IC50 [2]: 4.2 µM; IC50 [3]: 10.6 µM; effect on viability / toxicity [4]: little to no toxicity; also recorded: no significant effect; IC50 (BCL-XLΔC): > 50 µM
36 | Cc1s/c(=N\C2CCCCC2)n(/N=C/c2ccc(O)c(O)c2O)c1C [183-8] | 712 | 1500 | –
37 | CC(C)(C)c1cs/c(=N\C2CCCCC2)n1/N=C/c1ccc(O)c(O)c1O [183-44] | 914 | 540 | –
38 | Cc1cs/c(=N\C2CC3CCC2C3)n1/N=C/c1cc(O)c(O)cc1O (stereo not drawn) [187-79] | 272 | 937 | –
39 | CC(C)C(C)/N=c1\scc(C2CC2)n1/N=C/c1cc(O)c(O)cc1O (stereo not drawn) [187-39] | 1100 | 7300 | –
40 | Cc1cs/c(=N\C2CCCCC2)n1/N=C/c1c(O)cc(O)cc1O [187-81] | 31000 | – | –
41 | Oc1ccc(/C=N/n2c3c(s/c2=N\C2CCCCC2)CCCC3)c(O)c1O [183-81] | 1300 | 4500 | –
42 | Cc1cs/c(=N\C2CCCc3ccccc32)n1/N=C/c1ccc(O)c(O)c1O (stereo not drawn) [187-23] | 1100 | 4360 | –
43 | CC(C)C(C)/N=C1\SCC(Br)(C2CC2)N1/N=C/c1cc(O)c(O)cc1O (stereo not drawn) [187-19] | – | 891 | –
44 | CC(C)(C)c1cs/c(=N\C2CCCCC2)n1/N=C/c1cc(O)c(O)c(O)c1 [183-88] | 759 | 1160 | –
45 | Oc1ccc(/C=N/n2c(-c3cccs3)cs/c2=N\c2ccccc2)c(O)c1O [190-18] | 1700 | – | –
